Measurements published in patent US6838416B2, “Herbicidal 5-benzyloxymethyl-1,2-isoxazoline derivatives” (Korea Research Institute of Chemical Technology, priority 2000, dated 2005).

Columns and labels:
ECHOR (seed) = assay: Assay for herbicidal activity, paddy pots: ECHOR; assay type: in vivo, Echinochloa crus-galli var. oryzicola; settings: three weeks after application, 0 untreated control, 100 complete kill
Source text: (§1) To evaluate herbicidal activity against the paddy weeds in the paddy rice (ORYSA: Oryza sativa L.), the herbicidal activity of the compounds of the invention was compared to that of the compound No.109 (compound A) disclosed in U.S. Pat. […] The paddy weeds tested were ECHOR (Echinochloa crus-galli var. oryzicola), SCPJU (Scirpus juncoides ROXB), MOOVA (Monochoria vaginalis […] (Cyperus serotinus ROTTB), and SAGPY (Sagittaria pygmaea MTQ). The vessels employed were plastic pots having an area of 140 cm^2 and filled with a sandy loam soil containing 1.2% organic matter (pH 6).

CYPSE (tuber) = assay: Assay for herbicidal activity, paddy pots: CYPSE; assay type: in vivo, Cyperus serotinus ROTTB; settings: three weeks after application, 0 untreated control, 100 complete kill
Source text: as §1

MOOVA (seed) = assay: Assay for herbicidal activity, paddy pots: MOOVA; assay type: in vivo, Monochoria vaginalis PRESL; settings: three weeks after application, 0 untreated control, 100 complete kill
Source text: as §1

SCPJU (seed) = assay: Assay for herbicidal activity, paddy pots: SCPJU; assay type: in vivo, Scirpus juncoides ROXB; settings: three weeks after application, 0 untreated control, 100 complete kill
Source text: as §1

SAGPY (tuber) = assay: Assay for herbicidal activity, paddy pots: SAGPY; assay type: in vivo, Sagittaria pygmaea MTQ; settings: three weeks after application, 0 untreated control, 100 complete kill
Source text: as §1

ORYSA (3-leaf stage) = assay: Assay for herbicidal activity, paddy pots: phytotoxicity to transplanted rice seedlings; assay type: in vivo, Oryza sativa L.; settings: in vivo
Source text: as §1

Row | SMILES | ECHOR (seed) herbicidal activity, visual percentage grading (ECHOR (seed); 0.016 kg/ha) [%] | ECHOR (seed) herbicidal activity, visual percentage grading (ECHOR (seed); 0.063 kg/ha) [%] | ECHOR (seed) herbicidal activity, visual percentage grading (ECHOR (seed); 0.250 kg/ha) [%] | ECHOR (seed) herbicidal activity, visual percentage grading (ECHOR (seed); 1.000 kg/ha) [%] | ECHOR (seed) herbicidal activity, visual percentage grading (ECHOR (seed); 4.000 kg/ha) [%] | CYPSE (tuber) herbicidal activity, visual percentage grading (CYPSE (tuber); 0.016 kg/ha) [%] | CYPSE (tuber) herbicidal activity, visual percentage grading (CYPSE (tuber); 0.063 kg/ha) [%] | CYPSE (tuber) herbicidal activity, visual percentage grading (CYPSE (tuber); 0.250 kg/ha) [%] | CYPSE (tuber) herbicidal activity, visual percentage grading (CYPSE (tuber); 1.000 kg/ha) [%] | CYPSE (tuber) herbicidal activity, visual percentage grading (CYPSE (tuber); 4.000 kg/ha) [%] | MOOVA (seed) herbicidal activity, visual percentage grading (MOOVA (seed); 0.016 kg/ha) [%] | MOOVA (seed) herbicidal activity, visual percentage grading (MOOVA (seed); 0.063 kg/ha) [%] | MOOVA (seed) herbicidal activity, visual percentage grading (MOOVA (seed); 0.250 kg/ha) [%] | MOOVA (seed) herbicidal activity, visual percentage grading (MOOVA (seed); 1.000 kg/ha) [%] | MOOVA (seed) herbicidal activity, visual percentage grading (MOOVA (seed); 4.000 kg/ha) [%] | SCPJU (seed) herbicidal activity, visual percentage grading (SCPJU (seed); 0.016 kg/ha) [%] | SCPJU (seed) herbicidal activity, visual percentage grading (SCPJU (seed); 0.063 kg/ha) [%] | SCPJU (seed) herbicidal activity, visual percentage grading (SCPJU (seed); 0.250 kg/ha) [%] | SCPJU (seed) herbicidal activity, visual percentage grading (SCPJU (seed); 1.000 kg/ha) [%] | SCPJU (seed) herbicidal activity, visual percentage grading (SCPJU (seed); 4.000 kg/ha) [%] | other results
1 | Cc1cc(C)c(C2=NOC(C)(COCc3ccccc3F)C2)s1 (stereo not drawn) [EXAMPLE 13, 5-(2-fluorobenzyl)oxymethyl-5-methyl-3-(2,4-dimethylthiophene-5-yl)-1,2-isoxazoline] | 50 | 70 | 100 | 100 | 100 | 0 | 0 | 90 | 100 | 100 | 50 | 70 | 80 | 90 | 100 | 30 | 30 | 70 | 90 | 100 | SAGPY (tuber) herbicidal activity, visual percentage grading (SAGPY (tuber); 0.016 kg/ha): 0%; SAGPY (tuber) herbicidal activity, visual percentage grading (SAGPY (tuber); 0.063 kg/ha): 0%; SAGPY (tuber) herbicidal activity, visual percentage grading (SAGPY (tuber); 0.250 kg/ha): 0%; SAGPY (tuber) herbicidal activity, visual percentage grading (SAGPY (tuber); 1.000 kg/ha): 0%; SAGPY (tuber) herbicidal activity, visual percentage grading (SAGPY (tuber); 4.000 kg/ha): 30%
2 | CC1(COCc2c(F)cccc2F)CC(c2ccc(Br)s2)=NO1 (stereo not drawn) [EXAMPLE 11, 5-(2,6-difluorobenzyl)oxymethyl-5-methyl-3-(2-bromothiophene-5-yl)-1,2-isoxazoline] | 20 | 70 | 100 | 100 | 100 | 0 | 0 | 40 | 100 | 100 | 30 | 50 | 90 | 100 | 100 | 0 | 0 | 20 | 30 | 80 | SAGPY (tuber) herbicidal activity, visual percentage grading (SAGPY (tuber); 0.016 kg/ha): 0%; SAGPY (tuber) herbicidal activity, visual percentage grading (SAGPY (tuber); 0.063 kg/ha): 0%; SAGPY (tuber) herbicidal activity, visual percentage grading (SAGPY (tuber); 0.250 kg/ha): 0%; SAGPY (tuber) herbicidal activity, visual percentage grading (SAGPY (tuber); 1.000 kg/ha): 30%; SAGPY (tuber) herbicidal activity, visual percentage grading (SAGPY (tuber); 4.000 kg/ha): 50%; ORYSA (3-leaf stage) phytotoxicity, visual percentage grading (ORYSA (3-leaf stage)): 0%
